Values quoted from earlier work, collected in patent US7939308B2, “Bio-based method for making mannitol” (The United States of America as represented by the …, priority 2002, dated 2011).
In brackets after ≈: the same amount, converted by molar mass.

Conditions: at 25° C.

- solubility limit: 180 mg/mL (≈ 988 mM)
SMILES: OC[C@@H](O)[C@@H](O)[C@H](O)[C@H](O)CO [mannitol, Mannitol]
